Source: the NIST ThermoML archive (doi:10.1016/j.jct.2018.05.027)

Assay: xn = mol fraction of the nth substance listed
Settings: Liquid, Vibrating wire viscometry

Cc1ccc(C)c(C)c1 [1,2,4-trimethylbenzene] + CCC(C)O
viscosity [mPa·s]
Settings | 293.15 K | 313.15 K | 333.15 K | 353.15 K
100 kPa, x2 = 0.3011 | 0.9506 | 0.708 | 0.539 | 0.43
100 kPa, x2 = 0.5001 | 1.108 | 0.7802 | 0.5777 | 0.4439
100 kPa, x2 = 0.7999 | 1.834 | 1.097 | 0.7185 | 0.4963
1000 kPa, x2 = 0.3011 | 0.9531 | 0.7098 | 0.5411 | 0.436
1000 kPa, x2 = 0.5001 | 1.117 | 0.7964 | 0.5881 | 0.4481
1000 kPa, x2 = 0.7999 | 1.863 | 1.131 | 0.7301 | 0.5
5000 kPa, x2 = 0.3011 | 0.9988 | 0.7427 | 0.571 | 0.4507
5000 kPa, x2 = 0.5001 | 1.173 | 0.8335 | 0.6122 | 0.467
5000 kPa, x2 = 0.7999 | 1.964 | 1.187 | 0.7583 | 0.5157
10000 kPa, x2 = 0.3011 | 1.051 | 0.7727 | 0.5928 | 0.4678
10000 kPa, x2 = 0.5001 | 1.235 | 0.8676 | 0.6383 | 0.4891
10000 kPa, x2 = 0.7999 | 2.099 | 1.244 | 0.7963 | 0.5386
20000 kPa, x2 = 0.3011 | 1.137 | 0.8356 | 0.634 | 0.4988
20000 kPa, x2 = 0.5001 | 1.329 | 0.9318 | 0.6899 | 0.5215
20000 kPa, x2 = 0.7999 | 2.326 | 1.363 | 0.8656 | 0.584
30000 kPa, x2 = 0.3011 | 1.238 | 0.9034 | 0.6817 | 0.5358
30000 kPa, x2 = 0.5001 | 1.462 | 1.031 | 0.739 | 0.5615
30000 kPa, x2 = 0.7999 | 2.611 | 1.515 | 0.9569 | 0.6316
40000 kPa, x2 = 0.3011 | 1.334 | 0.9814 | 0.7313 | 0.57
40000 kPa, x2 = 0.5001 | 1.591 | 1.108 | 0.7961 | 0.5952
40000 kPa, x2 = 0.7999 | 2.897 | 1.666 | 1.039 | 0.6809
50000 kPa, x2 = 0.3011 | 1.452 | 1.055 | 0.784 | 0.605
50000 kPa, x2 = 0.5001 | 1.739 | 1.204 | 0.8558 | 0.6372
50000 kPa, x2 = 0.7999 | 3.229 | 1.835 | 1.13 | 0.7349
60000 kPa, x2 = 0.3011 | 1.57 | 1.132 | 0.8388 | 0.645
60000 kPa, x2 = 0.5001 | 1.906 | 1.3 | 0.9176 | 0.6813
60000 kPa, x2 = 0.7999 | 3.561 | 2.005 | 1.219 | 0.7906
70000 kPa, x2 = 0.3011 | 1.702 | 1.224 | 0.8962 | 0.6863
70000 kPa, x2 = 0.5001 | 2.061 | 1.394 | 0.9822 | 0.726
70000 kPa, x2 = 0.7999 | 3.917 | 2.187 | 1.321 | 0.849
80000 kPa, x2 = 0.3011 | 1.851 | 1.303 | 0.9559 | 0.7294
80000 kPa, x2 = 0.5001 | 2.257 | 1.502 | 1.046 | 0.7743
80000 kPa, x2 = 0.7999 | 4.274 | 2.368 | 1.424 | 0.9092
100000 kPa, x2 = 0.3011 | 2.152 | 1.491 | 1.089 | 0.821
100000 kPa, x2 = 0.5001 | 2.62 | 1.716 | 1.196 | 0.871
100000 kPa, x2 = 0.7999 | 5.09 | 2.741 | 1.653 | 1.04
120000 kPa, x2 = 0.3011 | 2.47 | 1.667 | 1.238 | 0.9204
120000 kPa, x2 = 0.5001 | 3.033 | 1.936 | 1.366 | 0.9782
120000 kPa, x2 = 0.7999 | 6.117 | 3.219 | 1.898 | 1.175
140000 kPa, x2 = 0.3011 | 2.838 | 1.904 | 1.385 | 1.038
140000 kPa, x2 = 0.5001 | 3.493 | 2.192 | 1.528 | 1.093
140000 kPa, x2 = 0.7999 | 7.143 | 3.693 | 2.144 | 1.339
